The values below come from patent US20250382344A1, “Soluble GLP1/GIP/NPY2 Receptor Triple Agonists” (Boehringer Ingelheim International GmH, priority 2024, published 2025).

For data set [1], the target named is T1, hGLP1R (Homo sapiens, UniProt P43220).
T1 construct: expressed in transfected cells; host or cells: HEK-293 CRE-luciferase reporter cells
The data set can be described thus: hGLP1R CreLuc assay in 0.5% and 100% plasma (HEK-293 CRE-luciferase reporter cells). The class given is cell-based. To be noted: HEK-293 reporter cells. In general terms: Reporter assays use an easily measured gene product as a stand-in for the process of interest.

The target of data set [2] is T2, hGIPR (Homo sapiens, UniProt P48546).
T2 construct: expressed in transfected cells; host or cells: CHO CRE-luciferase reporter cells
T2 sequence (P48546 22-466): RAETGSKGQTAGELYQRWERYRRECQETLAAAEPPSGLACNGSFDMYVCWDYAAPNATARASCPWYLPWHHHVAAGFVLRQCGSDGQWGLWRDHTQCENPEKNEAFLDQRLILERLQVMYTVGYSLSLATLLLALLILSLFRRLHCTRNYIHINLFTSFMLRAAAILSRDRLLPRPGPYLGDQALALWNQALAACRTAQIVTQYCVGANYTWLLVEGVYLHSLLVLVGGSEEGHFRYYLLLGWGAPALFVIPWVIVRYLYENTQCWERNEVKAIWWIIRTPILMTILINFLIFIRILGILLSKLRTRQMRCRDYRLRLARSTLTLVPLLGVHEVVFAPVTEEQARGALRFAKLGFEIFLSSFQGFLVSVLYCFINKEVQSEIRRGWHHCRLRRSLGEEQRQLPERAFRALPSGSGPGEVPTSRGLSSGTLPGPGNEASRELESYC
The data set can be described thus: hGIPR CreLuc assay in 0.5% and 100% plasma (CHO CRE-luciferase reporter cells). The format is cell-based.

The nature of data set [3]: Solubility in 0.1 M phosphate buffer at pH 7. The class given is physicochemical. To be noted: 0.1 M phosphate buffer at pH 7, 10 mg/mL final peptide concentration, shaking 2 hours at room temperature, peptides as TFA-salts; measured sample pH 6.5-7.0.
The nature of data set [4]: Mouse PK after intravenous application. The class given is in vivo. The settings on record: plasma, male NMRI mice, intravenous 30-60 nmol/kg, non-compartmental analysis. Put shortly: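 Male NMRI mice (30–40 g) dosed 30-60 nmol/kg by tail vein in 50 mM phosphate buffer pH 7.4/3.5% mannitol. Saphenous EDTA blood sampled from conscious animals up to 56 h; plasma peptide quantified by LC-MS. Parameters from non-compartmental analysis of individual profiles.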

Data set [5] deals with Normal NMRI Mice. The experiment in a line: Effect on acute food intake in normal NMRI mice. The class given is in vivo. To be noted: male NMRI mice, single subcutaneous dose 100 nmol/kg, 24 hours food intake normalized to vehicle group. As to the method: Male NMRI mice were obtained from Janvier (Janvier Labs, France) or from Charles River (Charles River Research Models & Services Germany GmbH) at the age of 3 weeks. The animals get a microchip (Datamars, Slim Microchip T-SL) for individual identification after delivery. They were housed with 4 mice per cage under a 12/12 dark-light cycle, light off at 3 p.m. Room temperature was controlled to 21° C.+/−1° C. and humidity 60%+/−20%. Mice had ad libitum access to regular rodent chow (KLIBA Nafag 3040 or Altromin 1324, Brogaarden, Denmark) and tap water.
Latest transfer into the HM2-System of MBRose, Denmark (real-time monitoring system of food- and water intake) of the animals 5 days before study start, to allow acclimatization to experimental conditions. As the animals were uniquely identified with the microchips, each individual animal was identified by its own microchip upon entry and exit from the food channel via antennae. Randomization of the mice for each study group (n=8; age earliest 6 weeks old) was based on food intake (middle of last three days 24 h-interval) and bodyweight directly before start of the study. A vehicle treated (50 mM phosphate buffer pH 7.4 with 3.5% mannitol) group was included in each experiment. To have the same nutrition standard for each animal the food access was locked eight hours before dark phase. One hour before night, the animals were once treated subcutaneously with the test peptide. Food intake was reported hourly for a period of 24 hours.

[6] abbreviates: 0.5% human plasma, read-out: hGLP1R 0.5% hP.
Setting [7] is: 100% human plasma, read-out: hGLP1R 100% hP.
The mark [8] stands for this setting: 0.5% human plasma, read-out: hGIPR 0.5% hP.
The mark [9] stands for this setting: 100% human plasma, read-out: hGIPR 100% hP.

Where two headings read alike, the source gives them in different places.

T1 sequence (P43220 24-463): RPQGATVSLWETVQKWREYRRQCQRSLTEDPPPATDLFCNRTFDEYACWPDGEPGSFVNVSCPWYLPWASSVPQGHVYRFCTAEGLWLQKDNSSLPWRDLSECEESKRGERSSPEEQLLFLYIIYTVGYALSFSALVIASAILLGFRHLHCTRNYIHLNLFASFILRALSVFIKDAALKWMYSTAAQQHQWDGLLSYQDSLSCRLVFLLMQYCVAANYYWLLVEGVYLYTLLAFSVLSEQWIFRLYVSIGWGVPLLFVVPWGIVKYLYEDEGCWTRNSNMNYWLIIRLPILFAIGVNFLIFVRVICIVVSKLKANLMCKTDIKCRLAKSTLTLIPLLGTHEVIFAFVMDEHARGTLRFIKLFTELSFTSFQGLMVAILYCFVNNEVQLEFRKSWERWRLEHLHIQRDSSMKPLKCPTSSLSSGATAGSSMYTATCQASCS

Turning to `CC[C@H](C)[C@H](NC(=O)[C@H](CC(C)C)NC(=O)[C@H](Cc1c[nH]cn1)NC(=O)[C@H](CCCNC(=N)N)NC(=O)[C@@H](NC(=O)[C@H](Cc1ccccc1)NC(=O)[C@H](C)NC(=O)C(C)(C)NC(=O)[C@H](CCC(N)=O)NC(=O)[C@H](C)NC(=O)[C@H](CCC(N)=O)NC(=O)[C@H](CCCCN)NC(=O)[C@H](CCC(=O)O)NC(=O)[C@H](CC(C)C)NC(=O)C(C)(C)NC(=O)[C@@H](NC(=O)[C@H](CO)NC(=O)[C@H](Cc1ccc(O)cc1)NC(=O)[C@H](CC(=O)O)NC(=O)[C@H](CO)NC(=O)[C@@H](NC(=O)[C@H](Cc1ccccc1)NC(=O)[C@@H](NC(=O)CNC(=O)[C@H](CCC(=O)O)NC(=O)C(C)(C)NC(=O)[C@@H](N)Cc1ccc(O)cc1)[C@@H](C)O)[C@@H](C)O)[C@@H](C)CC)C(C)C)C(=O)N[C@@H](CC(N)=O)C(=O)N[C@@H](CCCCNC(=O)CC[C@H](NC(=O)CC[C@H](NC(=O)CC[C@H](NC(=O)CC[C@H](NC(=O)CC[C@H](NC(=O)CC[C@H](NC(=O)CCCCCCCCCCCCCCCCCCC(=O)O)C(=O)O)C(=O)O)C(=O)O)C(=O)O)C(=O)O)C(=O)O)C(=O)NC(C)(C)C(=O)N[C@H](C(=O)N[C@@H](CCCNC(=N)N)C(=O)N[C@@H](CCC(N)=O)C(=O)N[C@@H](CCCNC(=N)N)C(=O)N[C@@H](Cc1ccc(O)cc1)C(N)=O)[C@@H](C)O` [Compound 3, Y-Aib-E-G-T-F-T-S-D-Y-S-I-Aib-L-E-K-Q-A-Q-Aib-A-F-V-R-H-L-I-N-K(1,3)-Aib-T-R-Q-R-Y-NH2.C20DA-gGlu-gGlu-gGlu-gGlu-gGlu-gGlu(1,2)], the EC50 in data set [1] (setting [6]) was 3 nM; in data set [1] (setting [7]), 13.9 nM; in data set [2] (setting [8]), 0.7 nM. In addition, the solubility (usually the dissolved amount per volume that the medium holds) at 2 h in data set [3] was found to be 6.9 mg/mL. The MRT (commonly the average time that molecules of a dose stay in the body) in data set [4] stood at 17.2 h. For the same molecule, the “Acute Food Intake 24 hours 100 nmol/kg [% CTL]” value in data set [5] turned out to be 74 % CTL.

For `CC[C@H](C)[C@H](NC(=O)[C@H](Cc1ccccc1)NC(=O)[C@H](C)NC(=O)C(C)(C)NC(=O)[C@H](CCC(N)=O)NC(=O)[C@H](C)NC(=O)[C@H](CCC(N)=O)NC(=O)[C@H](CCCCN)NC(=O)[C@H](CCC(=O)O)NC(=O)[C@H](CC(C)C)NC(=O)[C@](C)(CC(C)C)NC(=O)[C@@H](NC(=O)[C@H](CO)NC(=O)[C@H](Cc1ccc(O)cc1)NC(=O)[C@H](CC(=O)O)NC(=O)[C@H](CO)NC(=O)[C@@H](NC(=O)[C@H](Cc1ccccc1)NC(=O)[C@@H](NC(=O)CNC(=O)[C@H](CCC(=O)O)NC(=O)C(C)(C)NC(=O)[C@@H](N)Cc1ccc(O)cc1)[C@@H](C)O)[C@@H](C)O)[C@@H](C)CC)C(=O)N[C@@H](CCCNC(=N)N)C(=O)N[C@@H](Cc1c[nH]cn1)C(=O)N[C@@H](CC(C)C)C(=O)N[C@H](C(=O)N[C@@H](CC(N)=O)C(=O)N[C@@H](CCCCNC(=O)[C@@H](N)CCCCNC(=O)CC[C@H](NC(=O)CC[C@H](NC(=O)CC[C@H](NC(=O)CC[C@H](NC(=O)CC[C@H](NC(=O)CC[C@H](NC(=O)CCCCCCCCCCCCCCCCCCC(=O)O)C(=O)O)C(=O)O)C(=O)O)C(=O)O)C(=O)O)C(=O)O)C(=O)NC(C)(C)C(=O)N[C@H](C(=O)N[C@@H](CCCNC(=N)N)C(=O)N[C@@H](CCC(N)=O)C(=O)N[C@@H](CCCNC(=N)N)C(=O)N[C@@H](Cc1ccc(O)cc1)C(N)=O)[C@@H](C)O)[C@@H](C)CC` [Compound 53, Y-Aib-E-G-T-F-T-S-D-Y-S-I-aMeL-L-E-K-Q-A-Q-Aib-A-F-I-R-H-L-I-N-K(1,3)-Aib-T-R-Q-R-Y-NH2.C20DA-gGlu-gGlu-gGlu-gGlu-gGlu-gGlu-eLys(1,2)], the EC50 in data set [1] (setting [6]) amounted to 0.3 nM; in data set [2] (setting [8]) it was 0.1 nM; in data set [2] (setting [9]) it was 1.7 nM. Besides, the solubility at 2 h in data set [3] stood at 10 mg/mL. This molecule also registered an MRT in data set [4] of 14.4 h. Also, the “Acute Food Intake 24 hours 100 nmol/kg [% CTL]” value in data set [5] worked out at 47 % CTL.

Turning to `CC[C@H](C)[C@H](NC(=O)[C@H](CC(C)C)NC(=O)[C@H](Cc1c[nH]cn1)NC(=O)[C@H](CCCNC(=N)N)NC(=O)[C@@H](NC(=O)[C@H](Cc1ccccc1)NC(=O)[C@H](C)NC(=O)C(C)(C)NC(=O)[C@H](CCC(N)=O)NC(=O)[C@H](C)NC(=O)[C@H](CCC(N)=O)NC(=O)[C@H](CCCCN)NC(=O)[C@H](CCC(=O)O)NC(=O)[C@H](CC(C)C)NC(=O)[C@](C)(CC(C)C)NC(=O)[C@@H](NC(=O)[C@H](CO)NC(=O)[C@H](Cc1ccc(O)cc1)NC(=O)[C@H](CC(=O)O)NC(=O)[C@H](CO)NC(=O)[C@@H](NC(=O)[C@H](Cc1ccccc1)NC(=O)[C@@H](NC(=O)CNC(=O)[C@H](CCC(=O)O)NC(=O)C(C)(C)NC(=O)[C@@H](N)Cc1ccc(O)cc1)[C@@H](C)O)[C@@H](C)O)[C@@H](C)CC)C(C)C)C(=O)N[C@@H](CC(N)=O)C(=O)N[C@@H](CCCCNC(=O)[C@@H](N)CCCCNC(=O)CC[C@H](NC(=O)CC[C@H](NC(=O)CC[C@H](NC(=O)CC[C@H](NC(=O)CC[C@H](NC(=O)CC[C@H](NC(=O)CC[C@H](NC(=O)CCCCCCCCCCCCCCCCCCC(=O)O)C(=O)O)C(=O)O)C(=O)O)C(=O)O)C(=O)O)C(=O)O)C(=O)O)C(=O)NC(C)(C)C(=O)N[C@H](C(=O)N[C@@H](CCCNC(=N)N)C(=O)N[C@@H](CCC(N)=O)C(=O)N[C@@H](CCCNC(=N)N)C(=O)N[C@@H](Cc1ccc(O)cc1)C(N)=O)[C@@H](C)O` [Compound 78, Y-Aib-E-G-T-F-T-S-D-Y-S-I-aMeL-L-E-K-Q-A-Q-Aib-A-F-V-R-H-L-I-N-K(1,3)-Aib-T-R-Q-R-Y-NH2.C20DA-gGlu-gGlu-gGlu-gGlu-gGlu-gGlu-gGlu-eLys(1,2)], the EC50 in data set [1] (setting [6]) was 0.2 nM; in data set [2] (setting [8]) it was 0.1 nM. Besides, the solubility at 2 h in data set [3] was 10.3 mg/mL. For the same molecule, the “Acute Food Intake 24 hours 100 nmol/kg [% CTL]” value in data set [5] is 65 % CTL.

`CC[C@H](C)[C@H](NC(=O)[C@H](Cc1ccccc1)NC(=O)[C@H](C)NC(=O)C(C)(C)NC(=O)[C@H](CCC(N)=O)NC(=O)[C@H](C)NC(=O)[C@H](CCC(N)=O)NC(=O)[C@H](CCCCN)NC(=O)[C@H](CCC(=O)O)NC(=O)[C@H](CC(C)C)NC(=O)C(C)(C)NC(=O)[C@@H](NC(=O)[C@H](CO)NC(=O)[C@H](Cc1ccc(O)cc1)NC(=O)[C@H](CC(=O)O)NC(=O)[C@H](CO)NC(=O)[C@@H](NC(=O)[C@H](Cc1ccccc1)NC(=O)[C@@H](NC(=O)CNC(=O)[C@H](CCC(=O)O)NC(=O)C(C)(C)NC(=O)[C@@H](N)Cc1ccc(O)cc1)[C@@H](C)O)[C@@H](C)O)[C@@H](C)CC)C(=O)N[C@@H](CCCNC(=N)N)C(=O)N[C@@H](Cc1c[nH]cn1)C(=O)N[C@@H](CC(C)C)C(=O)N[C@H](C(=O)N[C@@H](CC(N)=O)C(=O)N[C@@H](CCCCNC(=O)[C@@H](N)CCCCNC(=O)CC[C@H](NC(=O)CC[C@H](NC(=O)CC[C@H](NC(=O)CC[C@H](NC(=O)CC[C@H](NC(=O)CC[C@H](NC(=O)CCCCCCCCCCCCCCCCC(=O)O)C(=O)O)C(=O)O)C(=O)O)C(=O)O)C(=O)O)C(=O)O)C(=O)NC(C)(C)C(=O)N[C@H](C(=O)N[C@@H](CCCNC(=N)N)C(=O)N[C@@H](CCC(N)=O)C(=O)N[C@@H](CCCNC(=N)N)C(=O)N[C@@H](Cc1ccc(O)cc1)C(N)=O)[C@@H](C)O)[C@@H](C)CC` [Compound 88, Y-Aib-E-G-T-F-T-S-D-Y-S-I-Aib-L-E-K-Q-A-Q-Aib-A-F-I-R-H-L-I-N-K(1,3)-Aib-T-R-Q-R-Y-NH2.C18DA-gGlu-gGlu-gGlu-gGlu-gGlu-gGlu-eLys(1,2)]: the EC50 worked out at 0.2 nM in data set [1] (setting [6]), 1.8 nM in data set [1] (setting [7]), 0.1 nM in data set [2] (setting [8]) and 1.7 nM in data set [2] (setting [9]). In addition, in data set [3], the solubility at 2 h is 10.4 mg/mL. The “Acute Food Intake 24 hours 100 nmol/kg [% CTL]” value in data set [5] is 47 % CTL.
